Target: T1, HGFR (Homo sapiens, UniProt P08581)
T1 construct: purchased Upstate 14-526
Experiment: HGFR continuous-coupled spectrophotometric assay
Assay type: biochemical
Settings: read-out: % Inhibition (percent c-MET inhibition); for inhibition at 1 pM: Table 7, library procedure 42; for inhibition at 1 µM: Table 8, library procedure 43

T1 sequence (P08581 974-1390 limits assumed): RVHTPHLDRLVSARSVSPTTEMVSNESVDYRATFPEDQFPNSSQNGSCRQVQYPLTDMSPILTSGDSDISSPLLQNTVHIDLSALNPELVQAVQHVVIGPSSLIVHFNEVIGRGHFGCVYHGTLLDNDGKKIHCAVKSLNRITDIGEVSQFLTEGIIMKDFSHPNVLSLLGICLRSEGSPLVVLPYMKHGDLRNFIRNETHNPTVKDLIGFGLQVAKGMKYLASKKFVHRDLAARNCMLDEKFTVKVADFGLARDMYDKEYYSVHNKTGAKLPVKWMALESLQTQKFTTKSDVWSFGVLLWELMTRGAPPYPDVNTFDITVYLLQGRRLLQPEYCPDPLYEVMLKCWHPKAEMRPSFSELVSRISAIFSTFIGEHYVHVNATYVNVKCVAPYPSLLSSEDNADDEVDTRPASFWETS

| SMILES | inhibition at 1 pM | inhibition at 1 µM |
| --- | --- | --- |
| Nc1ncc(-c2ccc(C(=O)N3CCC(N4CCCC4)CC3)cc2)cc1OCc1ccc(Cl)s1 | 19% |  |
| Nc1ncc(-c2ccc(C(=O)N3CCC(N4CCCC4)CC3)cc2)cc1OCc1ccc(OCc2ccccc2)cc1 | 49% |  |
| COc1ccc(OC)c(COc2cc(-c3ccc(C(=O)N4CCC(N5CCCC5)CC4)cc3)cnc2N)c1 | 19% |  |
| Nc1ncc(-c2ccc(C(=O)N3CCC(N4CCCC4)CC3)cc2)cc1OCc1nsc(Cl)n1 | 5% |  |
| Nc1ncc(-c2ccc(C(=O)N3CCC(N4CCCC4)CC3)cc2)cc1OCC1=C(Cl)SNN1 | 19% |  |
| Nc1ncc(-c2ccc(C(=O)N3CCC(N4CCCC4)CC3)cc2)cc1OCc1nc2ncccc2o1 | 17% |  |
| COc1ccnc(COc2cc(-c3ccc(C(=O)N4CCC(N5CCCC5)CC4)cc3)cnc2N)c1OC | 23% |  |
| Cc1cccnc1COc1cc(-c2ccc(C(=O)N3CCC(N4CCCC4)CC3)cc2)cnc1N | 16% |  |
| Cc1cccc(COc2cc(-c3ccc(C(=O)N4CCC(N5CCCC5)CC4)cc3)cnc2N)n1 | 17% |  |
| COc1ccccc1-c1nc(COc2cc(-c3ccc(C(=O)N4CCC(N5CCCC5)CC4)cc3)cnc2N)c(C)o1 | 19% |  |
| Cn1nc(C(F)(F)F)c2cc(COc3cc(-c4ccc(C(=O)N5CCC(N6CCCC6)CC5)cc4)cnc3N)sc21 | 14% |  |
| Nc1ncc(-c2ccc(C(=O)N3CCC(N4CCCC4)CC3)cc2)cc1OCc1cnc(N)c(N)n1 | 9% |  |
| Nc1ncc(-c2ccc(C(=O)N3CCC(N4CCCC4)CC3)cc2)cc1OCc1ncccn1 | 9% |  |
| CCc1ccn2cc(COc3cc(-c4ccc(C(=O)N5CCC(N6CCCC6)CC5)cc4)cnc3N)nc2c1 | 9% |  |
| Nc1nc(COc2cc(-c3ccc(C(=O)N4CCC(N5CCCC5)CC4)cc3)cnc2N)nc(Nc2ccccc2)n1 | 9% |  |
| N#Cc1cccc(COc2cc(-c3ccc(C(=O)N4CCC(N5CCCC5)CC4)cc3)cnc2N)c1 | 12% |  |
| Nc1ncc(-c2ccc(C(=O)N3CCC(N4CCCC4)CC3)cc2)cc1OCc1nc2ccccc2[nH]1 | 4% |  |
| Nc1ncc(-c2ccc(C(=O)N3CCC(N4CCCC4)CC3)cc2)cc1OCc1ccc(Cl)cc1Br | 28% |  |
| Cc1cnccc1COc1cc(-c2ccc(C(=O)N3CCC(N4CCCC4)CC3)cc2)cnc1N | 11% |  |
| Nc1ncc(-c2ccc(C(=O)N3CCC(N4CCCC4)CC3)cc2)cc1OCc1nc(NCCO)c2ccccc2n1 | 7% |  |
| CCOC(=O)c1nc(COc2cc(-c3ccc(C(=O)N4CCC(N5CCCC5)CC4)cc3)cnc2N)no1 | 8% |  |
| CNC(=O)c1ccc(OC)c(-c2noc(COc3cc(-c4ccc(C(=O)N5CCC(N6CCCC6)CC5)cc4)cnc3N)n2)c1 | 11% |  |
| CC(C)NC(=O)c1ccc(-c2noc(COc3cc(-c4ccc(C(=O)N5CCC(N6CCCC6)CC5)cc4)cnc3N)n2)cc1 | 18% |  |
| CC1CN(C(=O)c2ccc(-c3cnc(N)c(OCc4ccc(C(=O)NCc5cccnc5)cc4)c3)cc2)CC(C)N1 (stereo not shown) |  | 8% |
| CC1CN(C(=O)c2ccc(-c3cnc(N)c(OCc4ccc(C(=O)NC5CCN(Cc6ccccc6)C5)cc4)c3)cc2)CC(C)N1 (stereo not shown) |  | 19% |
| CC1CN(C(=O)c2ccc(-c3cnc(N)c(OCc4cccc(C(=O)Nc5ccc(N6CCCCC6)cc5)c4)c3)cc2)CC(C)N1 (stereo not shown) |  | 28% |
| CC1CN(C(=O)c2ccc(-c3cnc(N)c(OCc4ccc5nc(C(F)(F)F)cc(OC(C)C)c5c4)c3)cc2)CC(C)N1 (stereo not shown) |  | 17% |

Second part, the molecule after the results:

| inhibition at 1 pM | inhibition at 1 µM | SMILES |
| --- | --- | --- |
| 24% |  | Nc1ncc(-c2ccc(C(=O)N3CCC(N4CCCC4)CC3)cc2)cc1OCc1cc(F)ccc1F |
| 6% |  | Cc1nc(COc2cc(-c3ccc(C(=O)N4CCC(N5CCCC5)CC4)cc3)cnc2N)cs1 |
| 27% |  | Nc1ncc(-c2ccc(C(=O)N3CCC(N4CCCC4)CC3)cc2)cc1OCc1noc(-c2cccc(C(F)(F)F)c2)n1 |
| 10% |  | Cc1noc(C)c1COc1cc(-c2ccc(C(=O)N3CCC(N4CCCC4)CC3)cc2)cnc1N |
| 10% |  | Nc1ncc(-c2ccc(C(=O)N3CCC(N4CCCC4)CC3)cc2)cc1OCc1ccncc1 |
| 17% |  | Nc1ncc(-c2ccc(C(=O)N3CCC(N4CCCC4)CC3)cc2)cc1OCc1nc2cccnc2[nH]1 |
| 20% |  | COc1cc(OC)nc(COc2cc(-c3ccc(C(=O)N4CCC(N5CCCC5)CC4)cc3)cnc2N)n1 |
| 12% |  | Cc1[nH]cnc1COc1cc(-c2ccc(C(=O)N3CCC(N4CCCC4)CC3)cc2)cnc1N |
| 16% |  | CCCCc1nc(COc2cc(-c3ccc(C(=O)N4CCC(N5CCCC5)CC4)cc3)cnc2N)c[nH]1 |
| 16% |  | Nc1ncc(-c2ccc(C(=O)N3CCC(N4CCCC4)CC3)cc2)cc1OCc1cn2cc(Cl)ccc2n1 |
| 16% |  | Cc1ccn2cc(COc3cc(-c4ccc(C(=O)N5CCC(N6CCCC6)CC5)cc4)cnc3N)nc2c1 |
| 17% |  | Cc1oc(-c2ccc(F)cc2)nc1COc1cc(-c2ccc(C(=O)N3CCC(N4CCCC4)CC3)cc2)cnc1N |
| 16% |  | Cc1cc(C)nc(COc2cc(-c3ccc(C(=O)N4CCC(N5CCCC5)CC4)cc3)cnc2N)n1 |
| 15% |  | CCc1ccc(COc2cc(-c3ccc(C(=O)N4CCC(N5CCCC5)CC4)cc3)cnc2N)nc1 |
| 8% |  | Cc1oc(-c2cccc(F)c2)nc1COc1cc(-c2ccc(C(=O)N3CCC(N4CCCC4)CC3)cc2)cnc1N |
| 23% |  | Nc1ncc(-c2ccc(C(=O)N3CCC(N4CCCC4)CC3)cc2)cc1OCc1cc(-c2ccc(Cl)cc2)no1 |

| inhibition at 1 pM | inhibition at 1 µM | SMILES |
| --- | --- | --- |
| 7% |  | Cn1nc(CC2CC2)nc1COc1cc(-c2ccc(C(=O)N3CCC(N4CCCC4)CC3)cc2)cnc1N |
| 5% |  | Cn1nc(-c2ccccc2)nc1COc1cc(-c2ccc(C(=O)N3CCC(N4CCCC4)CC3)cc2)cnc1N |
| 5% |  | Cn1nc(C2CC2)nc1COc1cc(-c2ccc(C(=O)N3CCC(N4CCCC4)CC3)cc2)cnc1N |
| 10% |  | Cc1ccnc2nc(COc3cc(-c4ccc(C(=O)N5CCC(N6CCCC6)CC5)cc4)cnc3N)cn12 |
| 8% |  | Nc1ncc(-c2ccc(C(=O)N3CCC(N4CCCC4)CC3)cc2)cc1OCc1nccn1Cc1ccccc1 |
| 8% |  | N#Cc1ccc(COc2cc(-c3ccc(C(=O)N4CCC(N5CCCC5)CC4)cc3)cnc2N)cc1 |
| 27% |  | Nc1ncc(-c2ccc(C(=O)N3CCC(N4CCCC4)CC3)cc2)cc1OCc1ccc2ccccc2c1 |
| 18% |  | Nc1ncc(-c2ccc(C(=O)N3CCC(N4CCCC4)CC3)cc2)cc1OCc1ccc(F)cc1F |
| 16% |  | Nc1ncc(-c2ccc(C(=O)N3CCC(N4CCCC4)CC3)cc2)cc1OCc1noc(-c2ccccc2)n1 |
| 12% |  | CC(C)Cc1noc(COc2cc(-c3ccc(C(=O)N4CCC(N5CCCC5)CC4)cc3)cnc2N)n1 |
| -2% |  | Nc1ncc(-c2ccc(C(=O)N3CCC(N4CCCC4)CC3)cc2)cc1OCc1nc(-c2ccccc2)n[nH]1 |
| 5% |  | CCc1nc(COc2cc(-c3ccc(C(=O)N4CCC(N5CCCC5)CC4)cc3)cnc2N)no1 |
| 6% |  | Nc1ncc(-c2ccc(C(=O)N3CCC(N4CCCC4)CC3)cc2)cc1OCc1nc(NC2CC2)c2ccccc2n1 |
| 11% |  | Nc1ncc(-c2ccc(C(=O)N3CCC(N4CCCC4)CC3)cc2)cc1OCc1nc(-c2ccc(C(=O)N3CCCC3)cc2)no1 |
| 64% |  | Nc1ncc(-c2ccc(C(=O)N3CCC(N4CCCC4)CC3)cc2)cc1OCc1nc(-c2cccc(C(=O)Nc3ccc(F)cc3)c2)no1 |

Reference: patent US20050009840A1 (SUGEN, INC., priority 2003, published 2005)
